According to PubChem BioAssay AID463204 (Broad Institute, 2010):
The source made the active and inactive calls.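 How the source made its calls: active means AC50 no more than ten times the top concentration tested, that is within one log above it; inconclusive means flat curve fit with activity between 30% and 70%, or invalid poor fit; inactive means AC50 beyond ten times the top tested dose.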

System: S. cerevisiae Mot1-301 ts growth rescue, BacTiter-Glo ATP luminescence
Experiment: restored Mot1-301 yeast growth at 38.5C – whole organism, S. cerevisiae, Mot1-301 ts mutant, luminescence, dose retest, SUMOylation pathway inhibitor project, confirmation (AID 463204);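 further: growth at restrictive 38.5 degrees C of Mot1-301 OY566 strain; actives raise luminescence by restoring growth of the ts mutant at high temperature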

Compound | AC50
O=C1CC(N(CCc2ccccc2)C(=S)Nc2ccccc2)C(=O)N1c1ccc(F)cc1 (centres undefined) | > 42 µM (inactive)
CCOC(=O)Nc1sc(=S)n(C)c1C | > 42 µM (inactive)
CCOP(=O)(OCC)c1cc(CC)ccc1O | > 42 µM (inactive)
CCOc1cc(/C=C2\NC(=O)NC2=O)ccc1OC(C)C(=O)O (centres undefined) | > 42 µM (inactive)
c1ccc(-c2nc(N3CCOCC3)c3ccccc3n2)nc1 | > 42 µM (inactive)
CCC1C(c2ccccc2)NC(c2ccccc2)CC1(O)c1ccc(F)cc1 (centres undefined) | > 42 µM (inactive)
COc1ccc2c(c1)OC[C@H]1[C@H]2N2C(=O)c3cc(F)ccc3NC(=O)[C@@]2(C)[C@H]1c1ccccc1 | 3.15 µM
COc1ccccc1CSc1ncc(-c2ccc([N+](=O)[O-])cc2)[nH]1 | > 42 µM (inactive)
O=C(O)CCC(NC(=O)c1ccc(Cl)cc1)C(=O)O (centres undefined) | > 42 µM (inactive)
Cc1ccc(Oc2ccc(OCC(=O)Nc3ccncc3)cc2)cc1 | 23.5 µM
Cc1ccc(NS(=O)(=O)c2cc(C(=O)Nc3cccc([N+](=O)[O-])c3)ccc2C)cc1 | > 42 µM (inactive)
O=C(COC(=O)C1COc2ccccc2O1)NC1CCS(=O)(=O)C1 (centres undefined) | > 42 µM (inactive)
O=S(=O)(Cc1ccccc1)N1CCN(c2ncccn2)CC1 | > 42 µM (inactive)
O=c1[nH]nc(Cc2ccc(-c3ccccc3Cl)o2)c2ccccc12 | > 42 µM (inactive)
CN(Cc1ccc(C(C)(C)C)cc1)C(=O)c1ccc2c(=O)n3c(nc2c1)CCC3 | > 42 µM (inactive)
COc1cc(-c2nnc(SCC#CCO)o2)cc(OC)c1OC | > 42 µM (inactive)
CCCCN(C(=O)C1=COCCO1)c1c(N)n(Cc2ccccc2)c(=O)[nH]c1=O | > 42 µM (inactive)
Cc1ccc(CNC(=O)CCn2cc(-c3ccc(C)cc3)nc2CCN)cc1 | > 42 µM (inactive)
O=C(CSc1nc(-c2ccccc2)nc2ccc(F)cc12)Nc1cccc(C(=O)O)c1 | > 42 µM (inactive)
COc1cc(NC(=O)c2cc(Cl)ccc2Cl)ccc1-c1cc2ccccc2oc1=O | > 42 µM (inactive)
CC1(C(=O)Nc2cccc(-n3cnnn3)c2)Cc2ccccc2C(=O)O1 (centres undefined) | > 42 µM (inactive)
CCOC(=O)NNC(=O)CCn1c2c(c3ccccc31)CCCC2 | > 42 µM (inactive)
C=C1C(O)[C@@H]2O[C@]3(CC[C@H](/C=C/C(C)[C@@H]4CC(C)=CC5(O[C@H](C[C@@](C)(O)C(=O)O)CCC5O)O4)O3)CC[C@H]2O[C@@H]1C(O)CC(C)[C@H]1OC2(CCCCO2)CCC1C (some centres undefined) | 26 µM
CCC12CN3CCN(CC(C3)/C1=N/NC(=O)c1ccncc1)C2 | > 42 µM (inactive)
Cc1ccc(S(=O)(=O)Cc2ccc(C(=O)N3CCN(c4ccccn4)CC3)o2)cc1 | > 42 µM (inactive)

Compound | AC50
COc1ccc(OC)c(NC(=O)CNC(=O)Cn2ccc3ccccc3c2=O)c1 | > 42 µM (inactive)
CC(=O)N1CCCc2cc(S(=O)(=O)Nc3ccc(C)cc3C)ccc21 | > 42 µM (inactive)
COC(=O)c1ccccc1SC(CC(=O)c1ccccc1)c1ccc(F)cc1 (centres undefined) | > 42 µM (inactive)
Cc1ccc(S(=O)(=O)NCC(C)n2cncn2)cc1 (centres undefined) | > 42 µM (inactive)
CCCn1c(SC(C)C(=O)NCC2CCCO2)nc2sc(CC)cc2c1=O (centres undefined) | > 42 µM (inactive)
Cc1cc(Cl)c2oc(C(=O)NC3CCC(O)CC3)c(C)c2c1 (centres undefined) | > 42 µM (inactive)
CCCNC(=O)Cn1sc2nc(C)cc(C)c2c1=O | > 42 µM (inactive)
CC1CCCN(C(=O)Cc2ccc(F)cc2)C1 (centres undefined) | > 42 µM (inactive)
COc1ccc(-c2nnc(SCC(=O)N3CCCCC3)o2)cc1 | > 42 µM (inactive)
COc1ccc2c(Cl)c(C(=O)NN3CCN(C)CC3)sc2c1 | > 42 µM (inactive)
CCOC(=O)C1(Cc2cccc(F)c2)CCN(C(=O)c2cnccn2)CC1 | > 42 µM (inactive)
O=C(CSc1nc2ccc(Cl)cc2[nH]1)NCc1ccco1 | > 42 µM (inactive)
COc1ccc(N2CCN(C(=O)Cn3nnc(-c4ccc(OC)c(OC)c4)n3)CC2)cc1 | > 42 µM (inactive)
CC(C)(C)C(=O)NC1(C(F)(F)F)NC(=O)N(c2ccccc2F)C1=O (centres undefined) | > 42 µM (inactive)
CCOC(=O)c1cc(C#N)c(Oc2ccccc2OC)nc1-c1ccccc1 | > 42 µM (inactive)
C/C=C/C(=O)OCC(=O)Nc1nc2ccc(C)cc2s1 | > 42 µM (inactive)
O=C(O)C1C2CCC(O2)C1C(=O)NCCC1=CCCCC1 (centres undefined) | > 42 µM (inactive)
Cc1ccc(NC(=O)CN2C(=O)COc3ccc(S(=O)(=O)N4CCOCC4)cc32)cc1F | > 42 µM (inactive)
Cc1ccnc(NC(=O)CNC(=O)c2ccc(Br)o2)c1 | > 42 µM (inactive)
O=C1NC2(CCCCC2)NN1c1ccccc1 | > 42 µM (inactive)
O=C(/C=C/c1ccc(Cl)cc1Cl)Nc1cccc(S(=O)(=O)NC2=NCCCCC2)c1 | > 42 µM (inactive)
Cc1nc(C)n(CC(=O)N2CCCC(C(=O)c3cccc4ccccc34)C2)n1 (centres undefined) | > 42 µM (inactive)
COc1ccc(N2CCN(C(=O)C3CCCN(S(=O)(=O)c4ccc5c(c4)oc(=O)n5C)C3)CC2)cc1 (centres undefined) | > 21 µM (inactive)
O=C1NC(c2ccccc2)C(C(=O)c2cccs2)C(O)(C(F)(F)F)N1 (centres undefined) | > 42 µM (inactive)
O=C(COC(=O)C1CC(=O)N(Cc2ccccc2)C1)Nc1ccccc1F (centres undefined) | > 21 µM (inactive)

Compound | AC50
C[n+]1c(-c2ccccc2)cc(CCCCc2cc(-c3ccccc3)[n+](C)c(-c3ccccc3)c2)cc1-c1ccccc1 | > 21 µM (inactive)
Cc1cc(C)c2nc(-c3cccnc3)cc(C(=O)Nc3ccc(S(=O)(=O)Nc4onc(C)c4C)cc3)c2c1 | > 42 µM (inactive)
COC(=O)c1cccc(NC(=O)c2ccc[n+]([O-])c2)c1 | > 42 µM (inactive)
O=C(NCc1ccccc1)c1cccc(COc2ccc(Cl)cc2)c1 | > 42 µM (inactive)
N=c1n(CCCOc2ccc(Br)cc2)c2ccccc2n1CC(N)=O | > 42 µM (inactive)
OC(COc1ccccc1)Cn1c2ccccc2c2ccccc21 (centres undefined) | 35.6 µM
COc1ccccc1-c1nnc(SCC(=O)NC2CCS(=O)(=O)C2)n1N (centres undefined) | > 42 µM (inactive)
CCN(CC)c1ccc(C=C2C(=O)OC(c3ccccc3)OC2=O)cc1 (centres undefined) | > 42 µM (inactive)
COC(=O)c1ccc(SCC(=O)N2CCC(C)CC2)c([N+](=O)[O-])c1 | > 42 µM (inactive)
O=C(COc1ncnc2ccccc12)Nc1ccc(Cl)c(S(=O)(=O)N2CCOCC2)c1 | > 42 µM (inactive)
COc1ccc(C(=O)Nn2c(SCC(=O)NCc3ccccc3)nc3ccccc3c2=O)cc1 | > 42 µM (inactive)
CCCS(=O)(=O)N1CCC(C(=O)N2CCc3ccccc3C2)CC1 | > 42 µM (inactive)
Cc1ccc(/C=N/NC(=O)NC23CC4CC(CC(C4)C2)C3)o1 | > 42 µM (inactive)
O=C(CCC(=O)OCC(=O)c1ccc(Br)cc1)Nc1cccc2cccnc12 | > 42 µM (inactive)
Cc1cccc(OCC(O)CN2C(C)(C)CC(O)CC2(C)C)c1 (centres undefined) | > 42 µM (inactive)
CC(=O)c1cccc(NC(=O)CN(c2cccc(F)c2)S(C)(=O)=O)c1 | > 42 µM (inactive)
O=C(OC1CCOC1=O)c1cccc(S(=O)(=O)Nc2ccc(F)cc2)c1 (centres undefined) | > 42 µM (inactive)
CCc1ccc(S(=O)(=O)NCc2cccnc2)cc1 | > 42 µM (inactive)
CCOc1ccc(C(=O)c2cccs2)cc1 | > 42 µM (inactive)
O=C(NC1CCCCC1)c1n[nH]c2c1CCCCC2 | > 42 µM (inactive)
CCc1nnc(NC(=O)CSc2ccc(-c3ccc(-n4cccn4)cc3)nn2)s1 | > 42 µM (inactive)
COc1ccc(C(=O)Nc2ccccc2C(=O)NCCN2CCOCC2)cc1OC | > 42 µM (inactive)
Oc1cccc(/C=N/N2CCN(c3ccccn3)CC2)c1 | > 21 µM (inactive)
CC(C)(C)NC(=O)NC(=O)CN1CCN(S(=O)(=O)c2ccc3c(c2)OCCO3)CC1 | > 21 µM (inactive)
Cc1ccc(NC(=O)CN(C)C(=O)c2cccc(Br)c2)cc1 | > 42 µM (inactive)

Compound | AC50
CN(c1cccnc1)c1ncnc2[nH]ncc12 | > 42 µM (inactive)
Cc1ccc2c(c1)N(CC(=O)NCC1CCCO1)C(=O)C(C)O2 (centres undefined) | > 42 µM (inactive)
O=C(CN1C(=O)NC2(CCCC2)C1=O)Nc1nc2ccccc2[nH]1 | > 42 µM (inactive)
N/C(=N\NC(=O)c1sccc1OCc1ccc(Cl)cc1Cl)c1ccccn1 | > 42 µM (inactive)
O=C(COc1ccc(Cl)cc1)NCCCNC(=O)c1ccccn1 | > 42 µM (inactive)
Cc1cc(NC(=O)c2ccc(N3C(=O)CCC3=O)cc2)no1 | > 42 µM (inactive)
Cc1cc2c(C)ccc(C)c2nc1SCC(=O)c1cccs1 | > 42 µM (inactive)
COc1cc2nc(CSc3ncn[nH]3)[nH]c(=O)c2cc1OC | > 42 µM (inactive)
CC(C)C(NC(=O)c1ccccc1)C(=O)NCC(c1ccccc1)N(C)C (centres undefined) | > 42 µM (inactive)
Cc1cc(C)nc(SCC2COc3ccccc3O2)n1 (centres undefined) | > 42 µM (inactive)
O=C(c1ccc(Br)cc1)C(CN1CCOCC1)c1ccccc1 (centres undefined) | 0.65 µM
COc1ccccc1CNCc1cc(OC)c(OC)c(OC)c1 | > 42 µM (inactive)
Cc1ccc(C(=O)/C=C/c2ccc(-c3ccccc3[N+](=O)[O-])o2)cc1 | > 42 µM (inactive)
CCOC(=O)c1ccc(NC(=O)NCc2ccncc2)cc1 | > 42 µM (inactive)
COc1ccc(-c2nc3c(c(SCC(=O)N4CCOCC4)n2)Cc2c(CO)cnc(C)c2O3)cc1 | > 42 µM (inactive)
c1ccc2cc(C3CCCCC3)ncc2c1 | 14 µM
O=C(c1cc(-c2ccc(Cl)c(Cl)c2)on1)N1CCN(c2ccccc2)CC1 | > 42 µM (inactive)
Nc1nnnn1CC(=O)N/N=C/c1cccs1 | > 42 µM (inactive)
COC(=O)C1=C(C)NC(C)=C([N+](=O)[O-])C1c1ccccc1C(F)(F)F (centres undefined) | > 42 µM (inactive)
O=C(/C=C/c1cccc([N+](=O)[O-])c1)NCCSCc1ccc(Cl)cc1Cl | > 42 µM (inactive)
CS(=O)(=O)c1ccc(Cl)c(C(=O)O)c1 | > 42 µM (inactive)
CCOc1ccc2nc(C(C)O)[nH]c2c1 (centres undefined) | > 42 µM (inactive)
O=S(=O)(NCc1ccccc1)c1ccc(S(=O)(=O)N(Cc2ccccn2)Cc2ccco2)cc1 | > 42 µM (inactive)
CCCC1Cc2c(sc3ncnc(N)c23)CO1 (centres undefined) | > 42 µM (inactive)
